Experimental data: patent US10597388B2, “Pyridazinone herbicides” (FMC CORPORATION, priority 2014, dated 2020)

Key:
Test in all cases: Test C greenhouse herbicide test, pre- and postemergence
Format in all cases: in vivo
[1] = test system: barnyardgrass (Echinochloa crus-galli)
From the text: (§1) Seeds of plant species selected from blackgrass (Alopecurus myosuroides), ryegrass, Italian (Italian ryegrass, Lolium multiflorum), wheat (winter wheat, Triticum aestivum), galium (catchweed bedstraw, Galium aparine), corn (Zea mays), large crabgrass, large (large crabgrass, Digitaria sanguinalis), foxtail, giant (giant foxtail, Setaria faberii), johnsongrass (Sorghum halepense), lambsquarters (Chenopodium album), morningglory (Ipomoea coccinea), nutsedge, yellow (yellow nutsedge, Cyperus esculentus), pigweed (Amaranthus retroflexus), ragweed (common ragweed, Ambrosia elatior), soybean (Glycine max), barnyardgrass (Echinochloa crus-galli), oilseed rape (Brassica napus), waterhemp (common waterhemp, Amaranthus rudis), and velvetleaf (Abutilon theophrasti) were planted into a blend of loam soil and sand and treated preemergence with test chemicals formulated in a non-phytotoxic solvent mixture which included a surfactant.
(§2) At the same time, plants selected from these crop and weed species and also chickweed (common chickweed, Stellaria media), kochia (Kochia scoparia), and oat, wild (wild oat, Avena fatua), were planted in pots containing Redi-Earth® planting medium (Scotts Company, 14111 Scottslawn Road, Marysville, Ohio 43041) comprising spaghnum peat moss, vermiculite, wetting agent and starter nutrients and treated with postemergence applications of test chemicals formulated in the same manner. Plants ranged in height from 2 to 18 cm (1- to 4-leaf stage) for postemergence treatments. Treated plants and controls were maintained in a greenhouse for 13 to 15 d, after which time all species were compared to controls and visually evaluated. Plant response ratings, summarized in Table C, are based on a scale of 0 to 100 where 0 is no effect and 100 is complete control. A dash (-) response means no test result.

[2] = test system: crabgrass, large (large crabgrass, Digitaria sanguinalis)
From the text: as §1, §2

[3] = test system: lambsquarters (Chenopodium album)
From the text: as §1, §2

[4] = test system: galium (catchweed bedstraw, Galium aparine)
From the text: as §1, §2

[5] = test system: waterhemp (common waterhemp, Amaranthus rudis)
From the text: as §1, §2

[6] = test system: oilseed rape (Brassica napus)
From the text: as §1, §2

[7] = test system: wheat (winter wheat, Triticum aestivum)
From the text: as §1, §2

[8] = test system: foxtail, giant (giant foxtail, Setaria faberii)
From the text: as §1, §2

[9] = test system: blackgrass (Alopecurus myosuroides)
From the text: as §1, §2

[10] = test system: velvetleaf (Abutilon theophrasti)
From the text: as §1, §2

[11] = test system: johnsongrass (Sorghum halepense)
From the text: as §1, §2

[12] = test system: nutsedge, yellow (yellow nutsedge, Cyperus esculentus)
From the text: as §1, §2

[13] = test system: morningglory (Ipomoea coccinea)
From the text: as §1, §2

[14] = test system: ragweed (common ragweed, Ambrosia elatior)
From the text: as §1, §2

[15] = test system: pigweed (Amaranthus retroflexus)
From the text: as §1, §2

soybean (Glycine max) = test system: soybean (Glycine max)
From the text: as §1, §2

[16] = Postemergence, 31 g ai/ha, 0 to 100 scale (0 no effect, 100 complete control)
[17] = Postemergence, 125 g ai/ha, scale 0 to 100, 0 is no effect, 100 is complete control
[18] = Postemergence, 250 g ai/ha, scale 0 to 100, 0 no effect, 100 complete control, 13 to 15 d
[19] = Preemergence, 31 g ai/ha, scale 0 to 100, 0 is no effect, 100 is complete control
[20] = Preemergence, 62 g ai/ha, scale 0 to 100, 0 is no effect, 100 is complete control
[21] = Preemergence, 125 g ai/ha, scale 0 to 100, 0 is no effect, 100 is complete control
[22] = Preemergence, 250 g ai/ha, scale 0 to 100 (0 no effect, 100 complete control)
[23] = postemergence, 62 g ai/ha, scale 0 to 100, 0 no effect, 100 complete control

CC(=O)Oc1c(C)nn(C)c(=O)c1-c1c(C)sc2ccc(C)cc12 [Compound 25]
Barnyardgrass plant response rating [1, 16]: 15
Plant response rating, Barnyardgrass [1, 17]: 20
Plant response rating, Barnyardgrass [1, 18]: 25
Plant response rating, Barnyardgrass [1, 19]: 0
Plant response rating, Barnyardgrass [1, 20]: 30
Plant response rating, Barnyardgrass [1, 21]: 70
Barnyardgrass plant response rating [1, 22]: 85
Barnyardgrass plant response rating [1, 23]: 20
Crabgrass, Large plant response rating [2, 16]: 5
Plant response rating, Crabgrass, Large [2, 17]: 20
Plant response rating, Crabgrass, Large [2, 18]: 20
Plant response rating, Crabgrass, Large [2, 19]: 70
Plant response rating, Crabgrass, Large [2, 20]: 75
Plant response rating, Crabgrass, Large [2, 21]: 95
Crabgrass, Large plant response rating [2, 22]: 90
Crabgrass, Large plant response rating [2, 23]: 15
Lambsquarters plant response rating [3, 16]: 90
Plant response rating, Lambsquarters [3, 17]: 98
Plant response rating, Lambsquarters [3, 18]: 98
Plant response rating, Lambsquarters [3, 19]: 80
Plant response rating, Lambsquarters [3, 20]: 85
Plant response rating, Lambsquarters [3, 21]: 85
Lambsquarters plant response rating [3, 22]: 95
Lambsquarters plant response rating [3, 23]: 95
Galium plant response rating [4, 16]: 90
Plant response rating, Galium [4, 17]: 100
Plant response rating, Galium [4, 18]: 95
Plant response rating, Galium [4, 19]: 90
Plant response rating, Galium [4, 20]: 95
Plant response rating, Galium [4, 21]: 95
Galium plant response rating [4, 22]: 98
Galium plant response rating [4, 23]: 95
Waterhemp plant response rating [5, 16]: 75
Plant response rating, Waterhemp [5, 17]: 95
Plant response rating, Waterhemp [5, 18]: 98
Plant response rating, Waterhemp [5, 20]: 100
Plant response rating, Waterhemp [5, 21]: 100
Waterhemp plant response rating [5, 22]: 100
Waterhemp plant response rating [5, 23]: 95
Oilseed Rape plant response rating [6, 16]: 0
Plant response rating, Oilseed Rape [6, 17]: 20
Plant response rating, Oilseed Rape [6, 18]: 5
Plant response rating, Oilseed Rape [6, 19]: 0
Plant response rating, Oilseed Rape [6, 20]: 0
Plant response rating, Oilseed Rape [6, 21]: 5
Oilseed Rape plant response rating [6, 22]: 35
Oilseed Rape plant response rating [6, 23]: 0
Wheat plant response rating [7, 16]: 0
Plant response rating, Wheat [7, 17]: 0
Plant response rating, Wheat [7, 18]: 5
Plant response rating, Wheat [7, 20]: 0
Plant response rating, Wheat [7, 21]: 0
Wheat plant response rating [7, 22]: 5
Wheat plant response rating [7, 23]: 0
Foxtail, Giant plant response rating [8, 16]: 35
Plant response rating, Foxtail, Giant [8, 17]: 70
Plant response rating, Foxtail, Giant [8, 18]: 85
Plant response rating, Foxtail, Giant [8, 19]: 75
Plant response rating, Foxtail, Giant [8, 20]: 85
Plant response rating, Foxtail, Giant [8, 21]: 90
Foxtail, Giant plant response rating [8, 22]: 100
Foxtail, Giant plant response rating [8, 23]: 35
Blackgrass plant response rating [9, 16]: 30
Plant response rating, Blackgrass [9, 17]: 60
Plant response rating, Blackgrass [9, 18]: 80
Plant response rating, Blackgrass [9, 19]: 85
Plant response rating, Blackgrass [9, 20]: 85
Plant response rating, Blackgrass [9, 21]: 90
Blackgrass plant response rating [9, 22]: 90
Blackgrass plant response rating [9, 23]: 55
Velvetleaf plant response rating [10, 16]: 70
Plant response rating, Velvetleaf [10, 17]: 85
Plant response rating, Velvetleaf [10, 18]: 98
Plant response rating, Velvetleaf [10, 20]: 85
Plant response rating, Velvetleaf [10, 21]: 90
Velvetleaf plant response rating [10, 22]: 98
Velvetleaf plant response rating [10, 23]: 80
Johnsongrass plant response rating [11, 16]: 0
Plant response rating, Johnsongrass [11, 17]: 5
Plant response rating, Johnsongrass [11, 18]: 10
Plant response rating, Johnsongrass [11, 19]: 0
Plant response rating, Johnsongrass [11, 20]: 0
Plant response rating, Johnsongrass [11, 21]: 5
Johnsongrass plant response rating [11, 22]: 20
Johnsongrass plant response rating [11, 23]: 5
Nutsedge, Yellow plant response rating [12, 16]: 65
Plant response rating, Nutsedge, Yellow [12, 17]: 90
Plant response rating, Nutsedge, Yellow [12, 18]: 90
Plant response rating, Nutsedge, Yellow [12, 19]: 40
Plant response rating, Nutsedge, Yellow [12, 20]: 30
Plant response rating, Nutsedge, Yellow [12, 21]: 70
Nutsedge, Yellow plant response rating [12, 22]: 80
Nutsedge, Yellow plant response rating [12, 23]: 75
Morningglory plant response rating [13, 16]: 100
Plant response rating, Morningglory [13, 17]: 100
Plant response rating, Morningglory [13, 18]: 100
Plant response rating, Morningglory [13, 19]: 85
Plant response rating, Morningglory [13, 20]: 95
Plant response rating, Morningglory [13, 21]: 95
Morningglory plant response rating [13, 22]: 100
Morningglory plant response rating [13, 23]: 100
Ragweed plant response rating [14, 16]: 90
Plant response rating, Ragweed [14, 17]: 95
Plant response rating, Ragweed [14, 18]: 95
Plant response rating, Ragweed [14, 19]: 80
Plant response rating, Ragweed [14, 20]: 95
Plant response rating, Ragweed [14, 21]: 98
Ragweed plant response rating [14, 22]: 95
Ragweed plant response rating [14, 23]: 85
Pigweed plant response rating [15, 16]: 90
Plant response rating, Pigweed [15, 17]: 95
Plant response rating, Pigweed [15, 18]: 98
Plant response rating, Pigweed [15, 19]: 100
Plant response rating, Pigweed [15, 20]: 100
Plant response rating, Pigweed [15, 21]: 100
Pigweed plant response rating [15, 22]: 100
Pigweed plant response rating [15, 23]: 90
Soybean plant response rating (soybean (Glycine max); [16]): 0
Plant response rating, Soybean (soybean (Glycine max); [17]): 10
Plant response rating, Soybean (soybean (Glycine max); [18]): 10
Plant response rating, Soybean (soybean (Glycine max); [20]): 0
Plant response rating, Soybean (soybean (Glycine max); [21]): 0
Soybean plant response rating (soybean (Glycine max); [22]): 5
Soybean plant response rating (soybean (Glycine max); [23]): 0
